# Measurements as given in US11459375B2, “Cyclic peptides for the treatment of Graves' disease” (advanceCOR GmbH, priority 2017, dated 2022).
# What was measured:
# Ad-TSHR-immunized mice [1] = experiment: thyroid size at end of experiment in Graves' disease mouse model; format: in vivo, BALB/c mice; settings: 1 mg/kg IV 4-weekly
# Description: Representative images are shown. In FIG. 4B, the effects of peptide therapy on thyroid sizes were investigated at the end of the experiment. The measurements were carried out in Ad-TSHR-immunized mice treated by either 4-weekly injections with vehicle (0.9% NaCl, “Graves' no therapy”, n=25 mice), or administrations of 1 mg/kg body weight of peptide of the invention 836 (12 mice), or of peptide 829 (13 mice), or of TSHR-Fc (18 mice), or of control peptide 835 (13 mice). In addition, age-matched immunologically naïve unimmunized mice (“healthy”, 19 animals) were investigated. The mean thyroid sizes in mm^3 are shown with SEM. Differences between groups were tested by AVOVA followed by post hoc LSD testing. ** indicates statistical significance (p<0.001) compared to the TSHR-immunized group treated with only NaCl (“Graves' no therapy”).
# (§1) The study protocol used three 3-weekly immunizations (“initiation”) and followed by a “maintenance” phase with further regular 4-weekly boosts until the 9th immunisation, as described before (22). Mice were randomly assigned to therapeutic groups. Therapy (either 1 mg/kg body weight peptides or 0.9% NaCl vehicle control) was given 1 week after the 4th immunization by IV injection into a tail vein, and then continued at 4-weekly intervals, as described before for the treatment of anti-β1AR (16). The fusion protein TSHR-Fc was given IV at identical times at doses of 1 mg/kg, but had to be applied together with the histamine receptor blocker clemastin (Tavegil®) at a dose of 0.02 mg per mouse (25 g body weight) to avoid clinical symptoms of allergic reaction, which had been observed in initial pilot studies of TSHR-Fc administration in mice.
# After euthanasia, dissection of the thyroid glands was performed under a stereomicroscope, as described before (22). Briefly, cross cuts at the level above the larynx and below the seventh cartilage ring were made and the glands with the tracheae and oesophagi were removed from the necks. Tissue blocks were kept in 4% neutral para-formaldehyde (PFA), washed in PBS 3 times and embedded in optimum cutting temperature (OCT) formulation (Tissue-Tek® O.C.T.™ compound, VWR Chemicals, Leuven, Belgium). Consecutive 5 μm-thick cross sections were cut at a fixed distance of 500 μm using a Leica microtome CM 1850 Cryostat (temperature at −19° C.) and mounted on Thermo Polysine slides (Thermo Scientific, Cat J2800AMNZ). […] Thyroid volumes (mm^3) were calculated from the sum of the areas of each section over the whole cutting region. Myocardial volumes (mm^3) were calculated in a similar way as described for thyroid glands from the sum of the areas of each section over whole cutting region (5 to 6 slides, depending on respective size of the hearts). […]
# Ad-TSHR-immunized mice [2] = experiment: serum thyroxin (T4) levels in Graves' disease mouse model; format: in vivo, BALB/c mice; settings: 1 mg/kg IV 4-weekly, after start of therapy (week 11)
# Description: In FIG. 5 the effects of peptide therapy on serum thyroxin levels were evaluated. The measurements were carried out in Ad-TSHR-immunized mice treated by either 4-weekly injections with vehicle (0.9% NaCl, “Graves' no therapy”, n=25 mice), or administrations of 1 mg/kg body weight of peptide of the invention 836 (12 mice), or of peptide 829 (13 mice), or TSHR-Fc (18 mice), or of control peptide 835 (13 mice). In addition, age-matched immunologically naïve unimmunized mice (“healthy”, 19 animals) were investigated. Data are represented as means±SEM. Significance over time was tested by analysis of variance (ANOVA) of groups at given time points, and controlled by ANOVA for repeated measurements within one group, followed by LSD post-hoc testing. *p<0.05, and **p<0.005, compared to the TSHR-immunized group treated with only NaCl (“Graves' no therapy”).
# as §1
# Total thyroxine (T4) was measured by immunoassay kit (#T4044T-100, Calbiotech Inc, Austin, Calif.) in duplicate determination.
# Ad-TSHR-immunized mice [3] = experiment: ECG heart rates in Graves' disease mouse model; format: in vivo, BALB/c mice; settings: 1 mg/kg IV 4-weekly, ECG under anaesthesia
# Description: (§2) In FIG. 7 the effect of the peptide therapy on heart rates at various times during the experiment (A), and on heart weights (B) and cardiac ventricular volumes (C) at the end of the experiment were evaluated in all animals. The measurements were carried out in Ad-TSHR-immunized mice treated by either 4-weekly injections with vehicle (0.9% NaCl, “Graves' no therapy”, n=25 mice), or administrations of 1 mg/kg body weight of peptide of the invention 836 (12 mice), or of peptide 829 (13 mice), or TSHR-Fc (18 mice). In addition, age-matched immunologically naïve unimmunized mice (“healthy”, 19 animals) were investigated. Data are represented as mean±SEM. Significance over time was tested by analysis of variance (ANOVA) of groups at given time points, and controlled by ANOVA for repeated measurements within one group, followed by LSD post-hoc testing. *p<0.05, and **p<0.005, compared to the TSHR-immunized group treated with only NaCl (“Graves' no therapy”).
# When mice were subjected to anaesthesia for immunisation, their heart function was monitored with an electrocardiogram (ECG amplifier module, Harvard Apparatus, Hugo Sachs electronics) and recorded with a special software, which allows to determine the heart rate from the ECG reading (Haemodyn, Hugo Sachs electronics). ECG was also performed in anaesthesia before animals were euthanized for histological exam at the end of the study.
# Ad-TSHR-immunized mice [4] = experiment: heart weights upon necropsy; format: in vivo, BALB/c mice; settings: 1 mg/kg IV 4-weekly, necropsy at end of experiment
# Description: as §2
# Due to unavailability of some fine histological sections, analysis of this parameter in mice treated with other peptides could unfortunately not be completed.
# [5] = format: physicochemical
# From the text: Peptide 836 is a 24-meric cyclic peptide corresponding to the eighth TSHR LRD loop, and peptide 829 (also 24-meric) to the first loop of the TSHR LRD.
sequence,measurement,setting,value
NAFQGLCNETLTLKLYNNGFTSVQ [peptide 835],thyroid size,Ad-TSHR-immunized mice [1],did not show any effects
same,serum thyroxin (T4) levels,Ad-TSHR-immunized mice [2],did not result in any effects
same,heart rate,Ad-TSHR-immunized mice [3],did not show any effects
same,heart weights,Ad-TSHR-immunized mice [4],did not show any effects
same,solubility in water,[5],easily soluble in water
